Results on two compounds are retold here after ChEMBL document CHEMBL3758115, “Bacaryolanes A-C, Rare Bacterial Caryolanes from a Mangrove Endophyte” (2015).

For test [1], the system named is Bacillus spizizenii. Briefly: Antibacterial activity against Bacillus subtilis ATCC 6633 at 50 ug/disk after 24 hrs. The test is classed as functional. The conditions noted are these: ATCC 6633, 24 h, read-out: IZ.
Test [2] deals with Bacillus spizizenii. Put plainly: Antibacterial activity against Bacillus subtilis ATCC 6633 at 0.25 ug/disk after 24 hrs. The test is classed as functional. To be noted: ATCC 6633, 24 h, read-out: IZ.

Turning to `CC1(C)C[C@@H]2[C@@H]1[C@@H](O)C[C@@]1(C)CCC[C@]2(O)C1`, the zone of inhibition at 50 µg/disc in test [1] was 10 mm.

As to `O=C(N[C@H](CO)[C@H](O)c1ccc([N+](=O)[O-])cc1)C(Cl)Cl` [CHLORAMPHENICOL], the zone of inhibition at 0.25 µg/disc in test [2] turned out to be 28 mm.
